According to US6355682B1, “Treatment of acute renal failure by administration of N-acetylcysteine” (priority 2001, dated 2002):

System: patients affected by acute renal failures
Assay: Clinical case reports: N-acetycysteine given to patients with acute renal failure
Type: in vivo, human

In the case of CC(=O)N[C@@H](CS)C(=O)O [N-acetycysteine, N-acetylcysteine], the renal function (Case No. 1: 10 mg/kg twice daily, over the next several days) is reported as “returned to normal”, the “BUN and Creatinin” value (Case No. 1: acute renal failure after cardiogenic shock, 600 mg in a 20% solution every twelve hours, the next day) is reported as “the rise of BUN and Creatinin stopped” and the need for dialysis (Case No. 1: after N-acetycysteine treatment) is reported as “Dialysis was no longer required”. For the same compound, the renal function (Case No. 2: 20 mg/kg every twelve hours, over the next seventy-two hours) was “returned to normal”, the need for dialysis (Case No. 2: after N-acetycysteine treatment) was “Dialysis was no longer required” and the “BUN and Creatinin” value (Case No. 2: hypovolemic shock from acute pancreatitis, 20% solution, 20 mg/kg every twelve hours, values had risen to five times normal) was “The rise in their BUN and Creatinin stopped”. For the same compound, the urine output (Case No. 3: 20 mg/kg every twelve hours via nasogastric tube, before treatment less than 100 cc per day) was “increased to the normal level”, the “BUN and Creatinin” value (Case No. 3: multi-organ failure after cardiac arrest, 20 mg/kg every twelve hours via nasogastric tube, over the next several days) was “progressively declined” and the Creatinin clearance (Case No. 4: 10 mg/kg every twelve hours, two weeks after onset of renal toxicity, 11 ml/minute before treatment, normal for age above 65 ml/min) was 22 mL/min. For the same compound, the urine output (Case No. 4: 10 mg/kg every twelve hours, within several days) was “returned to normal”, the Bun/Creatinin (Case No. 4: diabetic patient, acute renal failure under IV Vancomycin and Imipenim, 10 mg/kg every twelve hours, values had risen to five times normal) was “progressively declined” and the need for dialysis (Case No. 4: two weeks after onset of renal toxicity) was “dialysis was no longer required”. For the same compound, the potassium level (Case No. 5: 20 mg/kg every twelve hours, within 24 hours, serum potassium 6.8 before admission) was “normalized”, the urine volume (Case No. 5: deterioration of chronic renal failure after Ciprofloxacin, 20 mg/kg every twelve hours, within 24 hours) was “substantially increased” and the need for hemodialysis (Case No. 5: remained on 600 mg twice daily) was “no longer required any hemodialysis”.
